Test results from patent US20260345619A1 (Principia Biopharma Inc., priority 2023, published 2026).

Test: Asthma Quality of Life Questionnaire with Standardized Activities (AQLQ(S))
Format: in vivo, human
Details: mITT
From the text: The AQLQ(S) is a self-administered patient reported outcome to measure the functional impairments that are most troublesome to adolescents and adults ≥12 years of age as a result of their asthma.
Asthma Quality of Life Questionnaire with Standardized Activities (AQLQ(S)) self-administered (≥12 years)
The AQLQ(S) was designed as a self-administered patient reported outcome to measure the functional impairments that are most troublesome to adolescents and adults ≥12 years of age as a result of their asthma. The instrument is comprised of 32 items, each rated on a 7-point Likert scales from 1 to 7. The AQLQ(S) has 4 domains. The domains and the number of items in each domain are as follows: • Symptoms (12 items) • Activity limitation (11 items) • Emotional function (5 items) • Environmental stimuli (4 items)
A global score is calculated ranging from 1 to 7 and a score by domain. Higher scores indicate better quality of life. […] Patients were to complete the questionnaire in an electronic diary during on-site visits.
Secondary endpoints included pre-bronchodilator FEV1 change from baseline at EOT, ACQ-5 score change from baseline, and AQLQ score change from baseline. Other secondary and exploratory endpoints are described in Table 2.

Question: For `CC(C)(C=C(C#N)C(=O)N1CCC[C@@H](n2nc(-c3ccc(Oc4ccccc4)cc3F)c3c(N)ncnc32)C1)N1CCN(C2COC2)CC1` (mixture of isomers) [rilzabrutinib, (R)-2-[3-[4-amino-3-(2-fluoro-4-phenoxy-phenyl)pyrazolo[3,4-d]pyrimidin-1-yl]piperidine-1-carbonyl]-4-methyl-4-[4-(oxetan-3-yl)piperazin-1-yl]pent-2-enenitrile], which “AQLQ(S) Activity limitation score, Mean” value (Week 4, 400 mg TID) is on record?
Answer: 5.15

Question: And the “AQLQ(S) Activity limitation score, Median” value (Week 4, 400 mg TID)?
Answer: 5.18

Question: What about the “AQLQ(S) Activity limitation score, change from baseline, LS Mean” value (Week 4, 400 mg TID) of the same compound?
Answer: 0.34

Question: What about the “AQLQ(S) Activity limitation score, change from baseline, Mean” value (Week 4, 400 mg TID) of the same compound?
Answer: 0.16

Question: What about the “AQLQ(S) Activity limitation score, change from baseline, Median” value (Week 4, 400 mg TID) of the same compound?
Answer: 0.09

Question: And the “AQLQ(S) Emotional function score, Mean” value (Week 4, 400 mg TID)?
Answer: 5.37

Question: And the “AQLQ(S) Emotional function score, Median” value (Week 4, 400 mg TID)?
Answer: 5.40

Question: And the “AQLQ(S) Emotional function score, change from baseline, LS Mean” value (Week 4, 400 mg TID)?
Answer: 0.35

Question: And the “AQLQ(S) Emotional function score, change from baseline, Mean” value (Week 4, 400 mg TID)?
Answer: 0.22

Question: And the “AQLQ(S) Emotional function score, change from baseline, Median” value (Week 4, 400 mg TID)?
Answer: 0.20

Question: And the “AQLQ(S) Environmental stimuli score, Mean” value (Week 4, 400 mg TID)?
Answer: 4.78

Question: And the “AQLQ(S) Environmental stimuli score, change from baseline, LS Mean” value (Week 4, 400 mg TID)?
Answer: 0.30

Question: And the “AQLQ(S) Environmental stimuli score, change from baseline, Mean” value (Week 4, 400 mg TID)?
Answer: 0.12

Question: And the “AQLQ(S) Environmental stimuli score, change from baseline, Median” value (Week 4, 400 mg TID)?
Answer: 0.25

Question: What about the “AQLQ(S) Global score, Mean” value (Week 4, 400 mg TID) of the same compound?
Answer: 5.16

Question: And the “AQLQ(S) Global score, Median” value (Week 4, 400 mg TID)?
Answer: 5.03

Question: And the “AQLQ(S) Global score, change from baseline, LS Mean” value (Week 4, 400 mg TID)?
Answer: 0.33

Question: And the “AQLQ(S) Global score, change from baseline, Mean” value (Week 4, 400 mg TID)?
Answer: 0.19

Question: And the “AQLQ(S) Global score, change from baseline, Median” value (Week 4, 400 mg TID)?
Answer: 0.13

Question: What about the “AQLQ(S) Symptoms score, Mean” value (Week 4, 400 mg TID) of the same compound?
Answer: 5.19

Question: What about the “AQLQ(S) Symptoms score, Median” value (Week 4, 400 mg TID) of the same compound?
Answer: 5.08

Question: And the “AQLQ(S) Symptoms score, change from baseline, LS Mean” value (Week 4, 400 mg TID)?
Answer: 0.38

Question: What about the “AQLQ(S) Symptoms score, change from baseline, Mean” value (Week 4, 400 mg TID) of the same compound?
Answer: 0.22

Question: What about the “AQLQ(S) Symptoms score, change from baseline, Median” value (Week 4, 400 mg TID) of the same compound?
Answer: 0.25

Question: What about the “AQLQ(S) Emotional function score, change from baseline, LS Mean Diff vs. placebo” value (Week 4, 400 mg TID, 95% CI −0.12, 0.54) of the same compound?
Answer: 0.21

Question: What about the “AQLQ(S) Symptoms score, change from baseline, LS Mean Diff vs. placebo” value (Week 4, 400 mg TID, 95% CI −0.14, 0.44) of the same compound?
Answer: 0.15

Question: And the “AQLQ(S) Global score, change from baseline, LS Mean Diff vs. placebo” value (Week 4, 400 mg TID, 95% CI −0.18, 0.36)?
Answer: 0.09

Question: And the “AQLQ(S) Activity limitation score, change from baseline, LS Mean Diff vs. placebo” value (Week 4, 400 mg TID, 95% CI −0.20, 0.35)?
Answer: 0.08

Question: What about the “AQLQ(S) Environmental stimuli score, change from baseline, LS Mean Diff vs. placebo” value (Week 4, 400 mg TID, 95% CI −0.37, 0.30) of the same compound?
Answer: −0.03

Question: And the “AQLQ(S) Activity limitation score, Mean” value (Week 8, 400 mg BID)?
Answer: 5.72

Question: What about the “AQLQ(S) Activity limitation score, Median” value (Week 8, 400 mg BID) of the same compound?
Answer: 5.91

Question: What about the “AQLQ(S) Activity limitation score, change from baseline, LS Mean” value (Week 8, 400 mg BID) of the same compound?
Answer: 0.89

Question: And the “AQLQ(S) Activity limitation score, change from baseline, Mean” value (Week 8, 400 mg BID)?
Answer: 0.96

Question: And the “AQLQ(S) Activity limitation score, change from baseline, Median” value (Week 8, 400 mg BID)?
Answer: 0.82

Question: What about the “AQLQ(S) Emotional function score, Mean” value (Week 8, 400 mg BID) of the same compound?
Answer: 6.12

Question: What about the “AQLQ(S) Emotional function score, Median” value (Week 8, 400 mg BID) of the same compound?
Answer: 6.20

Question: And the “AQLQ(S) Emotional function score, change from baseline, LS Mean” value (Week 8, 400 mg BID)?
Answer: 1.06

Question: What about the “AQLQ(S) Emotional function score, change from baseline, Mean” value (Week 8, 400 mg BID) of the same compound?
Answer: 0.87

Question: And the “AQLQ(S) Emotional function score, change from baseline, Median” value (Week 8, 400 mg BID)?
Answer: 0.60

Question: What about the “AQLQ(S) Environmental stimuli score, Mean” value (Week 8, 400 mg BID) of the same compound?
Answer: 5.19

Question: And the “AQLQ(S) Environmental stimuli score, change from baseline, LS Mean” value (Week 8, 400 mg BID)?
Answer: 0.66

Question: What about the “AQLQ(S) Environmental stimuli score, change from baseline, Mean” value (Week 8, 400 mg BID) of the same compound?
Answer: 0.73

Question: And the “AQLQ(S) Environmental stimuli score, change from baseline, Median” value (Week 8, 400 mg BID)?
Answer: 0.50

Question: What about the “AQLQ(S) Global score, Mean” value (Week 8, 400 mg BID) of the same compound?
Answer: 5.79

Question: And the “AQLQ(S) Global score, Median” value (Week 8, 400 mg BID)?
Answer: 5.88

Question: What about the “AQLQ(S) Global score, change from baseline, LS Mean” value (Week 8, 400 mg BID) of the same compound?
Answer: 0.92

Question: And the “AQLQ(S) Global score, change from baseline, Mean” value (Week 8, 400 mg BID)?
Answer: 0.90

Question: And the “AQLQ(S) Global score, change from baseline, Median” value (Week 8, 400 mg BID)?
Answer: 0.63

Question: And the “AQLQ(S) Symptoms score, Mean” value (Week 8, 400 mg BID)?
Answer: 5.93

Question: And the “AQLQ(S) Symptoms score, Median” value (Week 8, 400 mg BID)?
Answer: 6.00

Question: What about the “AQLQ(S) Symptoms score, change from baseline, LS Mean” value (Week 8, 400 mg BID) of the same compound?
Answer: 0.99

Question: What about the “AQLQ(S) Symptoms score, change from baseline, Mean” value (Week 8, 400 mg BID) of the same compound?
Answer: 0.91

Question: What about the “AQLQ(S) Symptoms score, change from baseline, Median” value (Week 8, 400 mg BID) of the same compound?
Answer: 0.83

Question: And the “AQLQ(S) Environmental stimuli score, change from baseline, LS Mean Diff vs. placebo” value (Week 8, 400 mg BID, 95% CI 0.03, 1.33)?
Answer: 0.68

Question: And the “AQLQ(S) Symptoms score, change from baseline, LS Mean Diff vs. placebo” value (Week 8, 400 mg BID, 95% CI 0.35, 1.18)?
Answer: 0.76

Question: And the “AQLQ(S) Global score, change from baseline, LS Mean Diff vs. placebo” value (Week 8, 400 mg BID, 95% CI 0.39, 1.20)?
Answer: 0.79

Question: And the “AQLQ(S) Activity limitation score, change from baseline, LS Mean Diff vs. placebo” value (Week 8, 400 mg BID, 95% CI 0.39, 1.21)?
Answer: 0.80

Question: What about the “AQLQ(S) Emotional function score, change from baseline, LS Mean Diff vs. placebo” value (Week 8, 400 mg BID, 95% CI 0.42, 1.54) of the same compound?
Answer: 0.98

Question: And the “AQLQ(S) Activity limitation score, Mean” value (Week 8, 400 mg TID)?
Answer: 5.28

Question: And the “AQLQ(S) Activity limitation score, Median” value (Week 8, 400 mg TID)?
Answer: 5.27

Question: And the “AQLQ(S) Activity limitation score, change from baseline, LS Mean” value (Week 8, 400 mg TID)?
Answer: 0.42

Question: And the “AQLQ(S) Activity limitation score, change from baseline, Mean” value (Week 8, 400 mg TID)?
Answer: 0.29

Question: What about the “AQLQ(S) Activity limitation score, change from baseline, Median” value (Week 8, 400 mg TID) of the same compound?
Answer: 0.36

Question: What about the “AQLQ(S) Emotional function score, Mean” value (Week 8, 400 mg TID) of the same compound?
Answer: 5.52

Question: And the “AQLQ(S) Emotional function score, Median” value (Week 8, 400 mg TID)?
Answer: 5.40

Question: And the “AQLQ(S) Emotional function score, change from baseline, LS Mean” value (Week 8, 400 mg TID)?
Answer: 0.51

Question: And the “AQLQ(S) Emotional function score, change from baseline, Mean” value (Week 8, 400 mg TID)?
Answer: 0.37

Question: What about the “AQLQ(S) Emotional function score, change from baseline, Median” value (Week 8, 400 mg TID) of the same compound?
Answer: 0.40

Question: What about the “AQLQ(S) Environmental stimuli score, Mean” value (Week 8, 400 mg TID) of the same compound?
Answer: 4.90

Question: What about the “AQLQ(S) Environmental stimuli score, change from baseline, LS Mean” value (Week 8, 400 mg TID) of the same compound?
Answer: 0.36

Question: And the “AQLQ(S) Environmental stimuli score, change from baseline, Mean” value (Week 8, 400 mg TID)?
Answer: 0.24

Question: And the “AQLQ(S) Environmental stimuli score, change from baseline, Median” value (Week 8, 400 mg TID)?
Answer: 0.25
